In patent US12521364B2, “Composition for preventing or treating neuropathic pain, containing syringaresinol” (UNIVERSITY-INDUSTRY COOPERATION GROUP OF KYUNG HEE …, priority 2019, dated 2026):

Legend:
[1] = test system: p-ERK MAPK; assay: Western blot of p-ERK in BV2 cells with oxaliplatin-induced inflammatory response; assay type: cell-based
Experimental: (§1) BV2 cell lines (microglia) were cultured in Dulbecco's modified Eagle's medium (DMEM; GIBCO, Grand Island, NY, USA) containing 10% fetal bovine serum (FBS; GIBCO) and 1% penicillin in a 5% CO2 incubator (37° C.). […]
(§2) Thereafter, proteins were isolated from the cells of each treatment group. […] The isolated proteins were quantified for each subject by using the Bradford (Bio-rad, USA) method using bovine serum albumin (BSA, Sigma, USA), and then 20 μg of the proteins were separated by 10% sodium dodecyl sulfate—polyacrylamide gel electrophoresis (SDS-PAGE) and transferred to polyvinylidene difluoride (PVDF) membranes (membrane, Gendepot, UK). […] The protein identification and quantitative analysis were performed using an imaging system (ChemiDoc XRS+ System, Bio-Rad).
(§3) All of the results were analyzed using the SPSS 21.0 package (SPSS Inc., Chicago, USA), and the experimental results were presented as the mean±standard deviation values. Statistical significance was validated using one-way analysis of variance (ANOVA) and then analyzed by Fisher's LSD test, and the significance probability value (p-value) was recognized only when p<0.05 and p<0.01.

[2] = test system: p-NF-κB; assay: Western blot of p-NF-κB in BV2 cells with oxaliplatin-induced inflammatory response; assay type: cell-based
Experimental: as §1, §2, §3

[3] = test system: iNOS; assay: Western blot of iNOS in BV2 cells with oxaliplatin-induced inflammatory response; assay type: cell-based
Experimental: as §1, §2, §3

[4] = test system: paclitaxel-induced neuropathic pain animal models; assay: Cold allodynia (acetone test) in paclitaxel-induced neuropathic pain animal models; assay type: in vivo, c57/bl6 male mice; details: 10 mg/kg oral, 1 hour after administration, day 14 after first paclitaxel injection, acetone to rear paws
Experimental: Paclitaxel (Sigma-Aldrich) dissolved in a 1:1 solution of Cremophor EL and ethanol at 6 mg/mL was diluted to a concentration of 0.2 mg/mL, and 2 mg/kg of the diluent was intraperitoneally administered to ten 6-week-old c57/bl6 male mice four times. Injections were conducted on days 0, 2, 4, and 6 at intervals of every other day. A significant pain was observed from about 10 days after the first injection. In the paclitaxel-induced neuropathic pain animal models, the response occurring after about 20 μL of acetone was applied to both rear paws of the animal models to cause cold allodynia was observed and recorded for about 15 seconds. The behaviors of withdrawal, shaking, and licking of the paws were observed and recorded. A total of three repeated trials were performed, and the average number of behaviors recorded was checked. On the 14th day after the first injection of paclitaxel, animal models showing a statistically significant level of pain were divided into a drug group administered 10 mg/kg of syringaresinol (syringaresinol, n=5) and a control group orally administered 0.06% Tween 80 (vehicle, n=5), and then were administered the corresponding drugs to thereby cause cold allodynia after 1 hour.

[5] = test system: oxaliplatin-induced neuropathic pain animal models; assay: Mechanical allodynia (von Frey filament) in oxaliplatin-induced neuropathic pain animal models; assay type: in vivo, c57/bl6 male mice; details: 10 mg/kg oral, 1 hour after administration, day 3 after oxaliplatin injection, 0.4 g von Frey filament
Experimental: (§4) Oxaliplatin (Sigma-Aldrich) dissolved in a 5% glucose solution to 2 mg/mL was single-intraperitoneally administered at 6 mg/kg to twelve 5-week-old c57/bl6 male mice. Significant pain was observed from about 3 days after the first injection.
The behavior of withdrawal to a stimulus using a 0.4 g von Frey filament (Touch test 3.61, Stoelting, USA), which causes mechanical allodynia in the oxaliplatin-induced neuropathic pain animal models, was recorded and observed. To measure the withdrawal response of the paws in the animal models, the animals were put in a transparent acrylic box (7 cm×10 cm) placed on a wire mesh with a grid size of 5 mm and given time to acclimate to the environment. After about 1 hour, the acclimation of the mice was checked, and the medial part of the affected paw was stimulated with the quantified von Frey filament through a wire mesh grid. A total of 10 stimulations sufficient to slightly bend the von Frey filament were given at intervals of 20 seconds, and the number of withdrawals was measured. […]

[6] = test system: oxaliplatin-induced neuropathic pain animal models; assay: Cold allodynia (acetone test) in oxaliplatin-induced neuropathic pain animal models; assay type: in vivo, c57/bl6 male mice; details: 10 mg/kg oral, 1 hour after administration, day 3 after oxaliplatin injection, acetone to rear paws
Experimental: In the paclitaxel-induced neuropathic pain animal models, the response occurring after about 20 μL of acetone was applied to both rear paws of the animal models to cause cold allodynia was observed and recorded for about 15 seconds. The behaviors of withdrawal, shaking, and licking of the paws were observed and recorded. A total of three repeated trials were performed, and the average number of behaviors recorded was checked.
as §4
Cold allodynia was caused in the oxaliplatin-induced neuropathic pain animal models by way of the method in Example 2.
On the 3rd day after the oxaliplatin injection, animal models showing a statistically significant level of pain were divided into a drug group administered 10 mg/kg syringaresinol (syringaresinol, n=6) and a control group orally administered 0.06% Tween 80 (vehicle, n=6), and then were administered the corresponding drugs to thereby cause cold allodynia and mechanical allodynia after 1 hour.

[7] = test system: peripheral nerve injury (PNL)-induced neuropathic pain animal models; assay: Mechanical pain (von Frey filament) in peripheral nerve injury (partial sciatic nerve ligation, PNL)-induced neuropathic pain models; assay type: in vivo, c57/bl6 male mice; details: 10 mg/kg oral, PNL mice
Experimental: The behavior of withdrawal to a stimulus using a 0.4 g von Frey filament (Touch test 3.61, Stoelting, USA), which causes mechanical allodynia in the oxaliplatin-induced neuropathic pain animal models, was recorded and observed. To measure the withdrawal response of the paws in the animal models, the animals were put in a transparent acrylic box (7 cm×10 cm) placed on a wire mesh with a grid size of 5 mm and given time to acclimate to the environment. After about 1 hour, the acclimation of the mice was checked, and the medial part of the affected paw was stimulated with the quantified von Frey filament through a wire mesh grid. A total of 10 stimulations sufficient to slightly bend the von Frey filament were given at intervals of 20 seconds, and the number of withdrawals was measured.
After twelve 5-week-old c57/bl6 male mice were respiratory anesthetized with 2.5% isoflurane, the skin on the posterior side of the right hip joint was shaved and incised, and then the sciatic nerve between the biceps femoris was found and confirmed. Thereafter, the […] was penetrated and ligated by a 7 m/m (⅜) silk thread, and then the cut skin was sutured. […]

[8] = BV2 cells stimulated with 1 μg/mL oxaliplatin for 3 hours, versus normal control
[9] = BV2 cells, syringaresinol 10 μg/mL and 100 μg/mL for 1 hour, then 1 μg/mL oxaliplatin for 3 hours

| SMILES | protein expression level of p-ERK MAPK [1, 8] | protein expression level of p-NF-κB [2, 8] | protein expression of iNOS [3, 8] | oxaliplatin-induced increase of p-ERK MAPK protein expression [1, 9] | cold allodynia compared with the control group (vehicle) [4] | mechanical allodynia compared with the control group (vehicle) [5] | oxaliplatin-induced increase of p-NF-κB protein expression [2, 9] | cold allodynia compared with the control group (vehicle) [6] | mechanical pain compared with the control group (vehicle) [7] | oxaliplatin-induced increase of iNOS protein expression [3, 9] |
| --- | --- | --- | --- | --- | --- | --- | --- | --- | --- | --- |
| O=C1[O][Pt]2([NH][C@@H]3CCCC[C@H]3[NH]2)[O]C1=O [oxaliplatin, reference compound] | significantly increased | significantly increased | significantly increased | – | – | – | – | – | – | – |
| COc1cc(C2OCC3C(c4cc(OC)c(O)c(OC)c4)OCC23)cc(OC)c1O (stereo not shown) [syringaresinol] | – | – | – | significantly inhibited | mitigated | mitigated | significantly inhibited | mitigated | significantly mitigated | significantly inhibited |
